Measured values as given in PubChem BioAssay AID2060613 (Molecular Pharmacology Branch, DTP, NCI, 2025).
pIC50: −log10 of the molar value. Where “and” joins values, the source holds several entries; their conditions need not be identical. Equal entries are not always repeated. Values belong to the compound of their own block, whether it stands above or below them.

System: 233499-124-R-J3-PDC complex spheroid viability
Assay: Anticancer human tumor 233499-124-R-J3-PDC patient-derived colon adenocarcinoma cell line growth inhibition [CLK]
Conditions: for viability, T/C: stronger effect = lower value
Outline: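 Patient-derived tumor cells grown as complex spheroids with HUVEC endothelial cells and mesenchymal stem cells, treated with drug combinations. Concentrations descend in half-log steps from near clinical Cmax, or from 10 microM if Cmax unknown.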

[1] = curve of first compound, second compound 0.0316 µM
[2] = curve of first compound, second compound 0.1 µM
[3] = curve of first compound, second compound 0.316 µM
[4] = curve of first compound, second compound 1 µM
[5] = curve of first compound, second compound 3.16 µM
[6] = curve of first compound, second compound 10 µM
[7] = second compound 0.0316 µM, first compound 0.0316 µM
[8] = second compound 0.0316 µM, first compound 0.1 µM
[9] = second compound 0.0316 µM, first compound 0.316 µM
[10] = second compound 0.0316 µM, first compound 1 µM
[11] = second compound 0.1 µM, first compound 0.0316 µM
[12] = second compound 0.1 µM, first compound 0.1 µM
[13] = second compound 0.1 µM, first compound 0.316 µM
[14] = second compound 0.1 µM, first compound 1 µM
[15] = second compound 0.316 µM, first compound 0.0316 µM
[16] = second compound 0.316 µM, first compound 0.1 µM
[17] = second compound 0.316 µM, first compound 0.316 µM
[18] = second compound 0.316 µM, first compound 1 µM
[19] = second compound 1 µM, first compound 0.0316 µM
[20] = second compound 1 µM, first compound 0.1 µM
[21] = second compound 1 µM, first compound 0.316 µM
[22] = second compound 1 µM, first compound 1 µM
[23] = second compound 3.16 µM, first compound 0.0316 µM
[24] = second compound 3.16 µM, first compound 0.1 µM
[25] = second compound 3.16 µM, first compound 0.316 µM
[26] = second compound 3.16 µM, first compound 1 µM
[27] = second compound 10 µM, first compound 0.0316 µM
[28] = second compound 10 µM, first compound 0.1 µM
[29] = second compound 10 µM, first compound 0.316 µM
[30] = second compound 10 µM, first compound 1 µM
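Also: spheroids exposed to the drug combinations for seven days.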
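For viability, T/C in this document: percent viability relative to DMSO vehicle control wells taken as 100%.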

pIC50 [1]: 6.76 | pIC50 [2]: 6.95 | pIC50 [3]: 7.05 | pIC50 [4]: 7.59 | pIC50 [5]: 7.38 | pIC50 [6]: 7.57
Compound: COc1c(OCCCN2CCOCC2)ccc2c3n(c(=NC(=O)c4cnc(N)nc4)nc12)CCN3 + CNC(=O)c1ccc(Nc2nc(OC3CCCC3)c3c(-c4ccc5nc(C)oc5c4)c[nH]c3n2)c(OC)c1
viability, T/C (second compound 0.0316 µM, first compound 0.00316 µM): 90% | viability, T/C (second compound 0.0316 µM, first compound 0.01 µM): 91% | viability, T/C [7]: 81.6% | viability, T/C [8]: 65.3% | viability, T/C [9]: 33.2% | viability, T/C [10]: 5.74% | viability, T/C (second compound 0.1 µM, first compound 0.00316 µM): 70.5% | viability, T/C (second compound 0.1 µM, first compound 0.01 µM): 85.4% | viability, T/C [11]: 73.2% | viability, T/C [12]: 53.4% | viability, T/C [13]: 16.1% | viability, T/C [14]: 3.37% | viability, T/C (second compound 0.316 µM, first compound 0.00316 µM): 75.3% | viability, T/C (second compound 0.316 µM, first compound 0.01 µM): 81.8% | viability, T/C [15]: 68.8% | viability, T/C [16]: 45.7% | viability, T/C [17]: 22.6% | viability, T/C [18]: 3.62% | viability, T/C (second compound 1 µM, first compound 0.00316 µM): 73.5% | viability, T/C (second compound 1 µM, first compound 0.01 µM): 59.4% | viability, T/C [19]: 49% | viability, T/C [20]: 31.6% | viability, T/C [21]: 23% | viability, T/C [22]: 3.52% | viability, T/C (second compound 3.16 µM, first compound 0.00316 µM): 62.9% | viability, T/C (second compound 3.16 µM, first compound 0.01 µM): 68.1% | viability, T/C [23]: 50% | viability, T/C [24]: 38.8% | viability, T/C [25]: 15.3% | viability, T/C [26]: 2.16% | viability, T/C (second compound 10 µM, first compound 0.00316 µM): 75.1% | viability, T/C (second compound 10 µM, first compound 0.01 µM): 65.9% | viability, T/C [27]: 45.5% | viability, T/C [28]: 31% | viability, T/C [29]: 10.5% | viability, T/C [30]: 2.07%

pIC50 (curve of compound): 8.30
Compound: CC(C)CC(NC(=O)C(Cc1ccccc1)NC(=O)c1cnccn1)B(O)O (stereo unspecified)
viability, T/C (compound 0.000949 µM): 101% and 106% | viability, T/C (compound 0.003 µM): 88.8% and 88.5% | viability, T/C (compound 0.00949 µM): 0.33% and 0.18% | viability, T/C (compound 0.03 µM): 0.31% and 0.22% | viability, T/C (compound 0.0949 µM): 0.13% and 0.2% | viability, T/C (compound 0.3 µM): 0.14% and 0.2%

Compound: CC(=O)O[C@H]1C(=O)[C@@]2(C)[C@H]([C@H](OC(=O)c3ccccc3)[C@]3(O)C[C@H](OC(=O)[C@H](O)[C@@H](NC(=O)c4ccccc4)c4ccccc4)C(C)=C1C3(C)C)[C@]1(OC(C)=O)CO[C@@H]1C[C@@H]2O + CN1CCN(c2cc(C(=O)Nc3cc4cc(-c5cnn(C)c5)ccc4cn3)ccn2)CC1
pIC50 [1]: 7.16 | pIC50 [2]: 7.24 | pIC50 [3]: 7.40 | pIC50 [4]: > 7.50 | pIC50 [5]: > 7.50 | pIC50 [6]: > 7.50 | viability, T/C [7]: 79.9% | viability, T/C [8]: 36.4% | viability, T/C [9]: 15.7% | viability, T/C [10]: 14.2% | viability, T/C (second compound 0.0316 µM, first compound 3.16 µM): 14.4% | viability, T/C (second compound 0.0316 µM, first compound 10 µM): 21.8% | viability, T/C [11]: 77.1% | viability, T/C [12]: 25.5% | viability, T/C [13]: 11.9% | viability, T/C [14]: 10.2% | viability, T/C (second compound 0.1 µM, first compound 3.16 µM): 12% | viability, T/C (second compound 0.1 µM, first compound 10 µM): 15.1% | viability, T/C [15]: 57.5% | viability, T/C [16]: 18.2% | viability, T/C [17]: 15.6% | viability, T/C [18]: 11.5% | viability, T/C (second compound 0.316 µM, first compound 3.16 µM): 13.8% | viability, T/C (second compound 0.316 µM, first compound 10 µM): 11.9% | viability, T/C [19]: 0.76% | viability, T/C [20]: 1.44% | viability, T/C [21]: 1.17% | viability, T/C [22]: 1.02% | viability, T/C (second compound 1 µM, first compound 3.16 µM): 0.56% | viability, T/C (second compound 1 µM, first compound 10 µM): 0.53% | viability, T/C [23]: 0.61% | viability, T/C [24]: 0.63% | viability, T/C [25]: 0.56% | viability, T/C [26]: 0.52% | viability, T/C (second compound 3.16 µM, first compound 3.16 µM): 0.59% | viability, T/C (second compound 3.16 µM, first compound 10 µM): 0.74% | viability, T/C [27]: 0.46% | viability, T/C [28]: 0.45% | viability, T/C [29]: 0.39% | viability, T/C [30]: 0.43% | viability, T/C (second compound 10 µM, first compound 3.16 µM): 0.43% | viability, T/C (second compound 10 µM, first compound 10 µM): 0.39%
